Assay results taken from patent US20040009126A1, “Inhalation system for prevention and treatment of intracellular infections” (priority 2002, published 2004).

Settings: mice, intratracheal administration, lungs
From the text: FIG. 2 is a graphical representation of the biodistribution of ciprofloxacin in the lungs upon administration of ciprofloxacin in liposomal form by inhalation and in free form by inhalation and orally.
The distribution following IT administration was compared with the distribution obtained in the lungs following an oral delivery of ciprofloxicin.

Structure (SMILES): O=C(O)c1cn(C2CC2)c2cc(N3CCNCC3)c(F)cc2c1=O [free ciprofloxicin, ciprofloxicin]
- lung level of ciprofloxicin over time: negligible after one hour
